Results: ChEMBL document CHEMBL3112480, “γ-Alkylidene-γ-lactones and isobutylpyrrol-2(5H)-ones analogues to rubrolides as inhibitors of biofilm formation by gram-positive and gram-negative bacteria” (Bioorg Med Chem Lett, 2014)

What was measured:
Streptococcus mutans [1] = experiment: Antibacterial activity against Streptococcus mutans ATCC 25175 assessed as effect on planktonic growth at 21.9 ug/ml after 20 hrs relative to control; assay type: functional
Streptococcus mutans [2] = experiment: Antibacterial activity against Streptococcus mutans ATCC 25175 assessed as effect on planktonic growth at 43.8 ug/ml after 20 hrs relative to control; assay type: functional
Streptococcus mutans [3] = experiment: Antibacterial activity against Streptococcus mutans ATCC 25175 assessed as effect on planktonic growth at 87.5 ug/ml after 20 hrs relative to control; assay type: functional
Staphylococcus aureus [4] = experiment: Antibacterial activity against Staphylococcus aureus ATCC 25923 assessed as effect on planktonic growth at 0.17 ug/ml after 20 hrs relative to control; assay type: functional
Staphylococcus aureus [5] = experiment: Antibacterial activity against Staphylococcus aureus ATCC 25923 assessed as effect on planktonic growth at 0.34 ug/ml after 20 hrs relative to control; assay type: functional
Staphylococcus aureus [6] = experiment: Antibacterial activity against Staphylococcus aureus ATCC 25923 assessed as effect on planktonic growth at 0.68 ug/ml after 20 hrs relative to control; assay type: functional
Staphylococcus aureus [7] = experiment: Antibacterial activity against Staphylococcus aureus ATCC 25923 assessed as effect on planktonic growth at 1.37 ug/ml after 20 hrs relative to control; assay type: functional
Staphylococcus aureus [8] = experiment: Antibacterial activity against Staphylococcus aureus ATCC 25923 assessed as effect on planktonic growth at 5.5 ug/ml after 20 hrs relative to control; assay type: functional
Staphylococcus aureus [9] = experiment: Antibacterial activity against Staphylococcus aureus ATCC 25923 assessed as effect on planktonic growth at 2.73 ug/ml after 20 hrs relative to control; assay type: functional
Staphylococcus aureus [10] = experiment: Antibacterial activity against Staphylococcus aureus ATCC 25923 assessed as effect on planktonic growth at 10.9 ug/ml after 20 hrs relative to control; assay type: functional
Staphylococcus aureus [11] = experiment: Antibacterial activity against Staphylococcus aureus ATCC 25923 assessed as effect on planktonic growth at 21.9 ug/ml after 20 hrs relative to control; assay type: functional
Staphylococcus aureus [12] = experiment: Antibacterial activity against Staphylococcus aureus ATCC 25923 assessed as effect on planktonic growth at 43.8 ug/ml after 20 hrs relative to control; assay type: functional
Staphylococcus aureus [13] = experiment: Antibacterial activity against Staphylococcus aureus ATCC 25923 assessed as effect on planktonic growth at 87.5 ug/ml after 20 hrs relative to control; assay type: functional
Pseudomonas aeruginosa [14] = experiment: Antibacterial activity against Pseudomonas aeruginosa ATCC 27853 assessed as effect on planktonic growth at 0.17 ug/ml after 20 hrs relative to control; assay type: functional
Pseudomonas aeruginosa [15] = experiment: Antibacterial activity against Pseudomonas aeruginosa ATCC 27853 assessed as effect on planktonic growth at 0.34 ug/ml after 20 hrs relative to control; assay type: functional
Pseudomonas aeruginosa [16] = experiment: Antibacterial activity against Pseudomonas aeruginosa ATCC 27853 assessed as effect on planktonic growth at 0.68 ug/ml after 20 hrs relative to control; assay type: functional
Pseudomonas aeruginosa [17] = experiment: Antibacterial activity against Pseudomonas aeruginosa ATCC 27853 assessed as effect on planktonic growth at 1.37 ug/ml after 20 hrs relative to control; assay type: functional
Pseudomonas aeruginosa [18] = experiment: Antibacterial activity against Pseudomonas aeruginosa ATCC 27853 assessed as effect on planktonic growth at 2.73 ug/ml after 20 hrs relative to control; assay type: functional
Pseudomonas aeruginosa [19] = experiment: Antibacterial activity against Pseudomonas aeruginosa ATCC 27853 assessed as effect on planktonic growth at 5.5 ug/ml after 20 hrs relative to control; assay type: functional
Pseudomonas aeruginosa [20] = experiment: Antibacterial activity against Pseudomonas aeruginosa ATCC 27853 assessed as effect on planktonic growth at 10.9 ug/ml after 20 hrs relative to control; assay type: functional
Pseudomonas aeruginosa [21] = experiment: Antibacterial activity against Pseudomonas aeruginosa ATCC 27853 assessed as effect on planktonic growth at 21.9 ug/ml after 20 hrs relative to control; assay type: functional
Pseudomonas aeruginosa [22] = experiment: Antibacterial activity against Pseudomonas aeruginosa ATCC 27853 assessed as effect on planktonic growth at 43.8 ug/ml after 20 hrs relative to control; assay type: functional
Pseudomonas aeruginosa [23] = experiment: Antibacterial activity against Pseudomonas aeruginosa ATCC 27853 assessed as effect on planktonic growth at 87.5 ug/ml after 20 hrs relative to control; assay type: functional
[24] = test system: Staphylococcus epidermidis; experiment: Antibacterial activity against Staphylococcus epidermidis ATCC 35547 assessed as effect on planktonic growth at 0.17 ug/ml after 20 hrs relative to control; assay type: functional
[25] = test system: Staphylococcus epidermidis; experiment: Antibacterial activity against Staphylococcus epidermidis ATCC 35547 assessed as effect on planktonic growth at 0.34 ug/ml after 20 hrs relative to control; assay type: functional
[26] = test system: Staphylococcus epidermidis; experiment: Antibacterial activity against Staphylococcus epidermidis ATCC 35547 assessed as effect on planktonic growth at 0.68 ug/ml after 20 hrs relative to control; assay type: functional
[27] = test system: Staphylococcus epidermidis; experiment: Antibacterial activity against Staphylococcus epidermidis ATCC 35547 assessed as effect on planktonic growth at 1.37 ug/ml after 20 hrs relative to control; assay type: functional
[28] = test system: Staphylococcus epidermidis; experiment: Antibacterial activity against Staphylococcus epidermidis ATCC 35547 assessed as effect on planktonic growth at 2.73 ug/ml after 20 hrs relative to control; assay type: functional
[29] = test system: Staphylococcus epidermidis; experiment: Antibacterial activity against Staphylococcus epidermidis ATCC 35547 assessed as effect on planktonic growth at 5.5 ug/ml after 20 hrs relative to control; assay type: functional
[30] = test system: Staphylococcus epidermidis; experiment: Antibacterial activity against Staphylococcus epidermidis ATCC 35547 assessed as effect on planktonic growth at 10.9 ug/ml after 20 hrs relative to control; assay type: functional
[31] = test system: Staphylococcus epidermidis; experiment: Antibacterial activity against Staphylococcus epidermidis ATCC 35547 assessed as effect on planktonic growth at 21.9 ug/ml after 20 hrs relative to control; assay type: functional
[32] = test system: Staphylococcus epidermidis; experiment: Antibacterial activity against Staphylococcus epidermidis ATCC 35547 assessed as effect on planktonic growth at 43.8 ug/ml after 20 hrs relative to control; assay type: functional
[33] = test system: Staphylococcus epidermidis; experiment: Antibacterial activity against Staphylococcus epidermidis ATCC 35547 assessed as effect on planktonic growth at 87.5 ug/ml after 20 hrs relative to control; assay type: functional
Pseudomonas aeruginosa [34] = experiment: Antibacterial activity against Pseudomonas aeruginosa ATCC 27853 assessed as inhibition of biofilm formation after 20 hrs by crystal-violet staining method; assay type: functional, organism-based
[35] = test system: Staphylococcus epidermidis; experiment: Antibacterial activity against Staphylococcus epidermidis ATCC 35547 assessed as inhibition of biofilm formation after 20 hrs by crystal-violet staining method; assay type: functional, organism-based
Streptococcus mutans [36] = experiment: Antibacterial activity against Streptococcus mutans ATCC 25175 assessed as effect on planktonic growth at 0.17 ug/ml after 20 hrs relative to control; assay type: functional
Streptococcus mutans [37] = experiment: Antibacterial activity against Streptococcus mutans ATCC 25175 assessed as effect on planktonic growth at 0.34 ug/ml after 20 hrs relative to control; assay type: functional
Streptococcus mutans [38] = experiment: Antibacterial activity against Streptococcus mutans ATCC 25175 assessed as effect on planktonic growth at 0.68 ug/ml after 20 hrs relative to control; assay type: functional
Streptococcus mutans [39] = experiment: Antibacterial activity against Streptococcus mutans ATCC 25175 assessed as effect on planktonic growth at 1.37 ug/ml after 20 hrs relative to control; assay type: functional
Streptococcus mutans [40] = experiment: Antibacterial activity against Streptococcus mutans ATCC 25175 assessed as effect on planktonic growth at 2.73 ug/ml after 20 hrs relative to control; assay type: functional
Streptococcus mutans [41] = experiment: Antibacterial activity against Streptococcus mutans ATCC 25175 assessed as effect on planktonic growth at 5.5 ug/ml after 20 hrs relative to control; assay type: functional
Streptococcus mutans [42] = experiment: Antibacterial activity against Streptococcus mutans ATCC 25175 assessed as effect on planktonic growth at 10.9 ug/ml after 20 hrs relative to control; assay type: functional

- IC50 (Pseudomonas aeruginosa [34]; ATCC 27853, 20 h): > 87.5 µg/mL
- IC50 ([35]; ATCC 35547, 20 h): > 87.5 µg/mL
Structure (SMILES): COc1ccccc1C1=C(Br)C(=O)O/C1=C\c1ccc(C(F)(F)F)cc1
- Activity (Streptococcus mutans [1]): 0.6%
- Activity (Streptococcus mutans [2]): 21.5%
- Activity (Streptococcus mutans [3]): 58.9%
- Activity (Staphylococcus aureus [4]): -3.6%
- Activity (Staphylococcus aureus [5]): -2%
- Activity (Staphylococcus aureus [6]): -2.3%
- Activity (Staphylococcus aureus [7]): -0.5%
- Activity (Staphylococcus aureus [8]): 9.9%
- Activity (Staphylococcus aureus [9]): 6.6%
- Activity (Staphylococcus aureus [10]): 9.7%
- Activity (Staphylococcus aureus [11]): 26.7%
- Activity (Staphylococcus aureus [12]): 47.3%
- Activity (Staphylococcus aureus [13]): 81.2%
- Activity (Pseudomonas aeruginosa [14]): -1.3%
- Activity (Pseudomonas aeruginosa [15]): -0.4%
- Activity (Pseudomonas aeruginosa [16]): -1.3%
- Activity (Pseudomonas aeruginosa [17]): -5.7%
- Activity (Pseudomonas aeruginosa [18]): -7%
- Activity (Pseudomonas aeruginosa [19]): 7.9%
- Activity (Pseudomonas aeruginosa [20]): 49.9%
- Activity (Pseudomonas aeruginosa [21]): 58%
- Activity (Pseudomonas aeruginosa [22]): 34.3%
- Activity (Pseudomonas aeruginosa [23]): 15.1%
- Activity [24]: -12.1%
- Activity [25]: -14.8%
- Activity [26]: -16.5%
- Activity [27]: 2.9%
- Activity [28]: 12.9%
- Activity [29]: -9.1%
- Activity [30]: 10.3%
- Activity [31]: 18.7%
- Activity [32]: 30.7%
- Activity [33]: 14.7%
- inhibition (Pseudomonas aeruginosa [34]): Dose-dependent effect
- inhibition [35]: Dose-dependent effect
- Activity (Streptococcus mutans [36]): -3.1%
- Activity (Streptococcus mutans [37]): 1.1%
- Activity (Streptococcus mutans [38]): -1.7%
- Activity (Streptococcus mutans [39]): -6.5%
- Activity (Streptococcus mutans [40]): -4%
- Activity (Streptococcus mutans [41]): -4.8%
- Activity (Streptococcus mutans [42]): -9.3%
